From patent US10080739B2, “Aryl imidazoles and their use as anti-cancer agents” (Aptose Biosciences Inc., priority 2003, dated 2018)

Tests used:
FGFR3 = molecular target: T1, FGFR3 (Homo sapiens, UniProt P22607); experiment: kinase profiler, FGFR3; type: biochemical; conditions: 10 μM compound, 100 μM ATP, mean of % control
T1 construct: purchased Upstate Biotechnologies (kinase profiler service)
Method: (§1) Compound 45 was tested for its ability to function as a kinase inhibitor using the kinase profiler service from Upstate Biotechnologies. The general protocol employed is as follows: recombinant kinases were incubated with specific substrates, 10 mM MgAcetate, and [γ-^33P-ATP]. The reaction was initiated by the addition of MgATP mix. After incubation at room temperature for 40 minutes, the reaction was stopped by the addition of 5 μl of a 3% phosphoric acid solution. 10 μl of the reaction was then spotted on to a P30 filtermat and washed 3 times for 5 min. in 75 mM phosphoric acid and once in methanol prior to drying and scintillation counting. Each reaction was performed in duplicate with 100 μM ATP −/+10 μM compound 45. Results are presented in Table IV and are expressed as the mean of % control (no compound). PI 3-kinase-γ (PI3K-γ) activity was determined with the PIProfiler™ assay, which measures the binding of the GRP1 pleckstrin homology (PH) domain to PIP3, the product of PI3K acting on its physiological substrate PIP2.

ASK1 = molecular target: T2, ASK1 (Homo sapiens, UniProt Q99683); experiment: kinase profiler, ASK1; type: biochemical; conditions: 10 μM compound, 100 μM ATP, mean of % control
T2 construct: purchased Upstate Biotechnologies (kinase profiler service)
Method: as §1

PKCδ = molecular target: T3, PKCδ (Homo sapiens, UniProt Q05655); experiment: kinase profiler, PKCδ; type: biochemical; conditions: 10 μM compound, 100 μM ATP, mean of % control
T3 construct: purchased Upstate Biotechnologies (kinase profiler service)
Method: as §1

Ros = molecular target: T4, Ros (Homo sapiens, UniProt P08922); experiment: kinase profiler, Ros; type: biochemical; conditions: 10 μM compound, 100 μM ATP, mean of % control
T4 construct: purchased Upstate Biotechnologies (kinase profiler service)
Method: as §1

PAK2 = molecular target: T5, PAK2 (Homo sapiens, UniProt Q13177); experiment: kinase profiler, PAK2; type: biochemical; conditions: 10 μM compound, 100 μM ATP, mean of % control
T5 construct: purchased Upstate Biotechnologies (kinase profiler service)
Method: as §1

MINK = molecular target: T6, MINK (Homo sapiens, UniProt Q8N4C8); experiment: kinase profiler, MINK; type: biochemical; conditions: 10 μM compound, 100 μM ATP, mean of % control
T6 construct: purchased Upstate Biotechnologies (kinase profiler service)
Method: as §1

EphB4 = molecular target: T7, EphB4 (Homo sapiens, UniProt P54760); experiment: kinase profiler, EphB4; type: biochemical; conditions: 10 μM compound, 100 μM ATP, mean of % control
T7 construct: purchased Upstate Biotechnologies (kinase profiler service)
Method: as §1

PI3K-δ = molecular target: T8, PI3K-δ (Homo sapiens, UniProt O00329); experiment: kinase profiler, PI3K-δ; type: biochemical; conditions: 10 μM compound, mean of % control
T8 construct: purchased Upstate Biotechnologies (kinase profiler service)
Method: as §1

IKKα = molecular target: T9, IKKα (Homo sapiens, UniProt O15111); experiment: kinase profiler, IKKα; type: biochemical; conditions: 10 μM compound, 100 μM ATP, mean of % control
T9 construct: purchased Upstate Biotechnologies (kinase profiler service)
Method: as §1

CDK6/cyclinD3 = molecular target: T10, CDK6/cyclinD3 (Homo sapiens, UniProt Q00534); experiment: kinase profiler, CDK6/cyclinD3; type: biochemical; conditions: 10 μM compound, 100 μM ATP, mean of % control
T10 construct: purchased Upstate Biotechnologies (kinase profiler service)
Method: as §1

CDK2/cyclinE = molecular target: T11, CDK2/cyclinE (Homo sapiens, UniProt P24941); experiment: kinase profiler, CDK2/cyclinE; type: biochemical; conditions: 10 μM compound, 100 μM ATP, mean of % control
T11 construct: purchased Upstate Biotechnologies (kinase profiler service)
Method: as §1

MKK4 = molecular target: T12, MKK4 (Mus musculus, UniProt P47809); experiment: kinase profiler, MKK4; type: biochemical, human; conditions: 10 μM compound, 100 μM ATP, mean of % control
T12 construct: purchased Upstate Biotechnologies (kinase profiler service)
Method: as §1

PKCμ = molecular target: T13, PKCμ (Homo sapiens, UniProt Q15139); experiment: kinase profiler, PKCμ; type: biochemical; conditions: 10 μM compound, 100 μM ATP, mean of % control
T13 construct: purchased Upstate Biotechnologies (kinase profiler service)
Method: as §1

Rse = molecular target: T14, Rse (Homo sapiens, UniProt Q06418); experiment: kinase profiler, Rse; type: biochemical; conditions: 10 μM compound, 100 μM ATP, mean of % control
T14 construct: purchased Upstate Biotechnologies (kinase profiler service)
Method: as §1

CDK7/cyclinH/MAT1 = molecular target: T15, CDK7/cyclinH/MAT1 (Homo sapiens, UniProt P50613); experiment: kinase profiler, CDK7/cyclinH/MAT1; type: biochemical; conditions: 10 μM compound, 100 μM ATP, mean of % control
T15 construct: purchased Upstate Biotechnologies (kinase profiler service)
Method: as §1

[1] = tested on: HT29 colon adenocarcinoma cells; experiment: morphological changes (vacuoles), HT29; type: cell-based, human; conditions: treatment for 24 hours
Description: These vacuoles are not formed in DMSO- or doxorubicin-treated cells. Moreover, the nuclear membrane is no longer evident in the phase-contrast images of cells treated with compound 45, even though the nucleus is still intact, as shown by DAPI staining.

[2] = tested on: human non-small cell lung cancer cells (H460); experiment: XTT cell proliferation assay, H460 cells, 48 h; type: cell-based; conditions: NCI-H460, 48 h, read-out: % Survival
Method: Selected compounds of Formula I were tested for anti-cancer activity in vitro using a human colon carcinoma cells (HT-29) and human non-small cell lung cancer cells (H460). The cells were maintained in α-MEM medium (Wisent, St-Bruno, Qc) supplemented with 10% FBS, and grown at 37° C. in an atmosphere of 5% CO2. Cells were transferred onto 150 mm tissue culture plates and grown until sub-confluency (70-80%) prior to their use.
The anti-cancer activity in vitro was evaluated by a cell proliferation assay based on the ability of live cells to reduce the tetrazolium salt XTT to orange coloured compounds of formazan (XTT cell proliferation kit II, Roche Applied Science, Montreal, QC).
Approximately 4×10^3 colon cancer cells (HT-29) or 2×10^3 non-small cell lung cancer cells (NCI-H460) in 100 μl of complete culture medium were plated onto 96-well microtiter plates and incubated overnight at 37° C. The medium was then removed by inverting the plate and patting on a sterile absorbent cloth. Fifty μl of medium containing the test compound at either 25 or 100 μM, were added to the wells containing cells and incubated at 37° C. in an atmosphere of 5% CO2 for 48 h. Following incubation, 25 μl of an XTT reaction mixture (XTT at a final concentration of 0.3 mg/ml) were added to each well and the plates were incubated for a further 4 h. The absorbance of each sample was then determined at a wavelength of 490 nm/650 nm as reference. Each compound was tested in duplicate and the results are reported as averages.

CaMKII = experiment: kinase profiler, CaMKII; type: biochemical, human; conditions: 10 μM compound, 100 μM ATP, mean of % control
Method: as §1

ALK = molecular target: T16, ALK (Homo sapiens, UniProt Q9UM73); experiment: kinase profiler, ALK; type: biochemical; conditions: 10 μM compound, 100 μM ATP, mean of % control
T16 construct: purchased Upstate Biotechnologies (kinase profiler service)
Method: as §1

Fyn = molecular target: T17, Fyn (Homo sapiens, UniProt P06241); experiment: kinase profiler, Fyn; type: biochemical; conditions: 10 μM compound, 100 μM ATP, mean of % control
T17 construct: purchased Upstate Biotechnologies (kinase profiler service)
Method: as §1

Yes = molecular target: T18, Yes (Homo sapiens, UniProt P07947); experiment: kinase profiler, Yes; type: biochemical; conditions: 10 μM compound, 100 μM ATP, mean of % control
T18 construct: purchased Upstate Biotechnologies (kinase profiler service)
Method: as §1

p70S6K = experiment: kinase profiler, p70S6K; type: biochemical, human; conditions: 10 μM compound, 100 μM ATP, mean of % control
Method: as §1

CHK1 = molecular target: T19, CHK1 (Homo sapiens, UniProt O14757); experiment: kinase profiler, CHK1; type: biochemical; conditions: 10 μM compound, 100 μM ATP, mean of % control
T19 construct: purchased Upstate Biotechnologies (kinase profiler service)
Method: as §1

SAPK3 = molecular target: T20, SAPK3 (Homo sapiens, UniProt P53778); experiment: kinase profiler, SAPK3; type: biochemical; conditions: 10 μM compound, 100 μM ATP, mean of % control
T20 construct: purchased Upstate Biotechnologies (kinase profiler service)
Method: as §1

SRC = molecular target: T21, SRC (Homo sapiens, UniProt P12931); experiment: kinase profiler, SRC; type: biochemical; conditions: 10 μM compound, 100 μM ATP, mean of % control
T21 construct: purchased Upstate Biotechnologies (kinase profiler service)
Method: as §1

MSK1 = molecular target: T22, MSK1 (Homo sapiens, UniProt O75582); experiment: kinase profiler, MSK1; type: biochemical; conditions: 10 μM compound, 100 μM ATP, mean of % control
T22 construct: purchased Upstate Biotechnologies (kinase profiler service)
Method: as §1

T4 sequence (P08922 28-2347): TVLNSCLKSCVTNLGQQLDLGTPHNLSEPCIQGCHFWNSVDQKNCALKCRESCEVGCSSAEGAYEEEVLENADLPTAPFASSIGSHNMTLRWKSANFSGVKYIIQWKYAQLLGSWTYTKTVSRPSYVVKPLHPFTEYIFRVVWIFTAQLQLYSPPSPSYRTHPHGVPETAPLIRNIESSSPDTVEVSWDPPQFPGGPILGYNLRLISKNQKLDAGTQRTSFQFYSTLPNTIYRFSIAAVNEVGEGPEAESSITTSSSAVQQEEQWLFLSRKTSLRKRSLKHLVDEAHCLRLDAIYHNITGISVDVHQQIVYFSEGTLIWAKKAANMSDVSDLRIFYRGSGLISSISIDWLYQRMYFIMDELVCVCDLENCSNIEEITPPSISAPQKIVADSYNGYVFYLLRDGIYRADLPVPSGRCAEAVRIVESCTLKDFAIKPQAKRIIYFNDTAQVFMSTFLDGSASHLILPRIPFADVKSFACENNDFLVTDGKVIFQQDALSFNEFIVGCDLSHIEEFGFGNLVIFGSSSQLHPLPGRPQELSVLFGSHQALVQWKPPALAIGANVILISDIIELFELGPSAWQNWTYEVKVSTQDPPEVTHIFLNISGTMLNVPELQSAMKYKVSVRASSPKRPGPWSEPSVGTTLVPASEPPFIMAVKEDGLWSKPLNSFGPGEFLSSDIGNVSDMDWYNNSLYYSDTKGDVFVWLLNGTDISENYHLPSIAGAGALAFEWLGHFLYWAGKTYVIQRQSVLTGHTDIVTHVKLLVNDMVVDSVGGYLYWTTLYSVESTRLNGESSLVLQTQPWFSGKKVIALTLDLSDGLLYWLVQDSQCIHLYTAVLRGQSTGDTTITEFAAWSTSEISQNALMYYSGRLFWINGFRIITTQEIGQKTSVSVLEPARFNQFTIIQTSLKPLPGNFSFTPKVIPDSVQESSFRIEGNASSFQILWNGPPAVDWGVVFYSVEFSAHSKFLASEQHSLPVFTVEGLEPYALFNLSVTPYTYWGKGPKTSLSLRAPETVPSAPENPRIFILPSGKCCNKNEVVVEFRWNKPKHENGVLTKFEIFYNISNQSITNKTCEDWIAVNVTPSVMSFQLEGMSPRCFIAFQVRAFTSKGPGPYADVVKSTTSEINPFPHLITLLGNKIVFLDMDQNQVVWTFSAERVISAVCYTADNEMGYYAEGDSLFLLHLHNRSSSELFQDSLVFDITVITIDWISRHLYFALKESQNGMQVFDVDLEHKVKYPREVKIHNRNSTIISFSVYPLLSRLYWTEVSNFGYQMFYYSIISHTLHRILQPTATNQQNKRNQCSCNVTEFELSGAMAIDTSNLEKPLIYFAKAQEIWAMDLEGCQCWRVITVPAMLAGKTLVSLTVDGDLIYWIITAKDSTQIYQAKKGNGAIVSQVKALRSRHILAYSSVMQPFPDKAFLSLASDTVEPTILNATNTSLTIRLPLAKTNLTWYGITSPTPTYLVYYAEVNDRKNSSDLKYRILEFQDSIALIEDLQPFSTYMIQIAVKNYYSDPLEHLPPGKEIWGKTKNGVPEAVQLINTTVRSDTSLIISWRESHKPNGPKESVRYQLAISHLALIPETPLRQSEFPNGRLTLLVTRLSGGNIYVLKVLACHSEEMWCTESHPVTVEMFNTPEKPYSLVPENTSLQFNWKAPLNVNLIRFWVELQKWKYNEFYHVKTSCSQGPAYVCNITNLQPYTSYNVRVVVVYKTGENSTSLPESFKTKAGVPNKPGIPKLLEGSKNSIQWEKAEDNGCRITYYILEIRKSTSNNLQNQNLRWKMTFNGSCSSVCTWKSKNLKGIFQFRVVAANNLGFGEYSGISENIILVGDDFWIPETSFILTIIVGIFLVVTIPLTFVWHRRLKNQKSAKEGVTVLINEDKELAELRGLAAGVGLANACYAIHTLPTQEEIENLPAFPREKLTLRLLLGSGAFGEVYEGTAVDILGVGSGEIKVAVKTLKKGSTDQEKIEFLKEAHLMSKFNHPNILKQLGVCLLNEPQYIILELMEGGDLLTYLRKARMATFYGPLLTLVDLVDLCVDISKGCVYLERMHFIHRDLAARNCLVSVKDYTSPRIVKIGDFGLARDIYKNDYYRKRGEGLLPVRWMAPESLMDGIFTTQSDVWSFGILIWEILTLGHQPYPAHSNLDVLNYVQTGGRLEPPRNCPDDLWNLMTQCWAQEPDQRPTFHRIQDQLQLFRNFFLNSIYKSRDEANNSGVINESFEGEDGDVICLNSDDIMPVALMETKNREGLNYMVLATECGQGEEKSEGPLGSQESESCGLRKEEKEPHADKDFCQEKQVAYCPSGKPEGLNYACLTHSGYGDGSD
T20 sequence (P53778 whole entry): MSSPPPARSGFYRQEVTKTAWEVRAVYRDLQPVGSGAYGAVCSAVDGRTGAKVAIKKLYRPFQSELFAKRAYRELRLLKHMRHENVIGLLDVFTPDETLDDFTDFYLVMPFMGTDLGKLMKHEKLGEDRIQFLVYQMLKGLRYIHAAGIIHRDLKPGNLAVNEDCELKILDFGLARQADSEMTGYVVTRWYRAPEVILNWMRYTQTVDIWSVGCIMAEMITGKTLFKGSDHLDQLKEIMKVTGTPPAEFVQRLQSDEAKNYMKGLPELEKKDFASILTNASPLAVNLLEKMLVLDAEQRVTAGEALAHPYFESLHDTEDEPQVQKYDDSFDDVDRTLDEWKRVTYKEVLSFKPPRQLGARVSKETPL
T9 sequence (O15111 whole entry): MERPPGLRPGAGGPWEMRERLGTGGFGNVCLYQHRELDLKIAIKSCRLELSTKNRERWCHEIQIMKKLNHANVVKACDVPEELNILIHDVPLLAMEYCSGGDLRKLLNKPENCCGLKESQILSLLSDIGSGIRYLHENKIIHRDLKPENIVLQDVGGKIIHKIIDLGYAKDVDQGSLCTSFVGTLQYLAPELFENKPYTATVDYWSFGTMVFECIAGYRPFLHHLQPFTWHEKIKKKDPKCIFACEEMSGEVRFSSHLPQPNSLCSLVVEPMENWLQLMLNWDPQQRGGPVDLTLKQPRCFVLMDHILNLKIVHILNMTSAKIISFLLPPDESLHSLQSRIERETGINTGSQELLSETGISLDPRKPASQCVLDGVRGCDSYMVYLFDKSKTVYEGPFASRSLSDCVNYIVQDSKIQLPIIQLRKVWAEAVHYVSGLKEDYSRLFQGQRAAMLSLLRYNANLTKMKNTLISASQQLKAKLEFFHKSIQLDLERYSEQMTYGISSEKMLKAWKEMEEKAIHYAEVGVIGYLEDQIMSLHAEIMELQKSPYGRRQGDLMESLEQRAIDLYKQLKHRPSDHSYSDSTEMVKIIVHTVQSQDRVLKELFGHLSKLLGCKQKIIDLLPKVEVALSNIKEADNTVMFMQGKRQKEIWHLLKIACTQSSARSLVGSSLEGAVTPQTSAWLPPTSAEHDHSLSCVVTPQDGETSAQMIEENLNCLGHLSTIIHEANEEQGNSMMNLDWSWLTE
T1 sequence (P22607 23-806): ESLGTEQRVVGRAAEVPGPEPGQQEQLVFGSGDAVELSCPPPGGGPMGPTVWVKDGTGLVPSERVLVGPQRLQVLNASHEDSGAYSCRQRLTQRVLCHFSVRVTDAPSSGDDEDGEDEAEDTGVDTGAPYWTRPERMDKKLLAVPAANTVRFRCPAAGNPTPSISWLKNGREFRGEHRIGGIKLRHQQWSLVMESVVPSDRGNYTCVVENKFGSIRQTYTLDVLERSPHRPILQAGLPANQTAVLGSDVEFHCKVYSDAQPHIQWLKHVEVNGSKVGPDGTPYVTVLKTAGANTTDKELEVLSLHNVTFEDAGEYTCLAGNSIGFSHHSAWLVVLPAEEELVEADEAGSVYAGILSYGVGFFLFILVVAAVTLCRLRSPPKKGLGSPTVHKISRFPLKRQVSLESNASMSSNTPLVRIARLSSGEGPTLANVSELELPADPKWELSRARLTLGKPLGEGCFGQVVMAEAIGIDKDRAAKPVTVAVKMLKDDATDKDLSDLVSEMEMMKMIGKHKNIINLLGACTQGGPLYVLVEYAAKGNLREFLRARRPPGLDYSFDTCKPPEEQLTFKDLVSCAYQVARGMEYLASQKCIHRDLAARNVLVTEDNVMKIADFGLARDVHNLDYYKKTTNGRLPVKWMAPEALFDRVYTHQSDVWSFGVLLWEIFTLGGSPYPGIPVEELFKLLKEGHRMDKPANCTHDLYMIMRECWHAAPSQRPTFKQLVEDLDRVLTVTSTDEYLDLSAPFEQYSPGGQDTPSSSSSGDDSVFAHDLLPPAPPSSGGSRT
T21 sequence (P12931 whole entry): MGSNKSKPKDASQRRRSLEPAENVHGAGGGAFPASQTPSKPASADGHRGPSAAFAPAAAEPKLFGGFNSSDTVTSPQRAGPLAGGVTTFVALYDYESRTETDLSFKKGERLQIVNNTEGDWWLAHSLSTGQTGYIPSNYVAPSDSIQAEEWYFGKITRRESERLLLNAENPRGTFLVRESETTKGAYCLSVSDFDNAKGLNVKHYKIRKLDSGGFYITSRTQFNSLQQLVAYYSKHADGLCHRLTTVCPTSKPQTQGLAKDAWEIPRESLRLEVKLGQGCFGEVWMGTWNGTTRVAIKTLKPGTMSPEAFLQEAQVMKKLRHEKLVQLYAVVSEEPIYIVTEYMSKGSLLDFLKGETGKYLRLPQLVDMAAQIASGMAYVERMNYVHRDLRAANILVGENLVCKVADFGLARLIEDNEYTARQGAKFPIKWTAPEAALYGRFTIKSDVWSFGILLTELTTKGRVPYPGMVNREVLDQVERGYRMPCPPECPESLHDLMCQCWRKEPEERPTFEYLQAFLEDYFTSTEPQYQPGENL

Brc1ccc2[nH]cc(-c3nc4c5ccccc5c5ccccc5c4[nH]3)c2c1 [Compound 45]
activity at 10 µM (FGFR3): 82% | activity at 10 µM (ASK1): 99% | activity at 10 µM (PKCδ): 87% | activity at 10 µM (Ros): 107% | activity at 10 µM (PAK2): 89% | activity at 10 µM (MINK): 91% | activity at 10 µM (EphB4): 95% | activity at 10 µM (PI3K-δ): 9% | activity at 10 µM (IKKα): 150% | activity at 10 µM (CDK6/cyclinD3): 87% | activity at 10 µM (CDK2/cyclinE): 117% | activity at 10 µM (MKK4): 96% | activity at 10 µM (PKCμ): 90% | activity at 10 µM (Rse): 176% | activity at 10 µM (CDK7/cyclinH/MAT1): 95% | formation of vacuoles [1]: formation of large vacuoles within the cytoplasm | viability at 25 µM [2]: 96% | viability at 100 µM [2]: 32.7% | % activity (CaMKII): 32% | activity at 10 µM (ALK): 60% | activity at 10 µM (Fyn): 103% | activity at 10 µM (Yes): 91% | % activity (p70S6K): 64% | activity at 10 µM (CHK1): 111% | activity at 10 µM (SAPK3): 54% | activity at 10 µM (SRC): 102% | activity at 10 µM (MSK1): 76%
